From patent US9404082B2, “Method for production of eosinophil from pluripotent stem cell” (KYOTO UNIVERSITY, priority 2010, dated 2016) come the findings set out here.

The experiment relates to ES cell (H1)-derived eosinophils. In words: Measurement of migratory capacity (Transwell). It counts as cell-based, human. The following applies: 1640 medium with 5% FBS, 1 to 2 hours, IL-5 0.2-25 ng/ml, Eotaxin 0.4-250 nM, fMLP 10 pM-100 nM, FIG. 3. As for the experimental part:
Eosinophils established from ES cells (H1) by the above method were transferred to Transwell, and 1640 medium supplemented with 5% FBS was added thereto. IL-5 (0.2 ng/ml to 25 ng/ml), Eotaxin (0.4 nM to 250 nM) and fMLP (10 pM to 100 nM) at various concentrations were added thereto, and culture was performed for 1 to 2 hours. Thereafter, the number of cells migrated from the top layer to the bottom layer was measured (FIG. 3).
As for “Eotaxin: cytokine used to stimulate eosinophil migration”, the “number of cells migrated from the top layer to the bottom layer” value (from here on “number of cells migrated”) was “migrate in response to the respective types of stimulation”.

In the case of “IL-5: cytokine used to stimulate eosinophil migration”, the “number of cells migrated” value is “migrate in response to the respective types of stimulation”.

With fMLP, the “number of cells migrated” value is on record as “migrate in response to the respective types of stimulation”.
